The values that follow come from patent publication EP2605769B1, “BENZOQUINONE DERIVATIVES FOR THE TREATMENT OF MITCHONDRIAL EYE DISEASES” (Santhera Pharmaceuticals (Schweiz) AG, priority 2010, dated 2012).

The test system of assay [1] is Primary human fibroblasts C4 (GM04545, Coriell). In words: Lipid peroxidation assay (BODIPY 581/591-C11). Conditions: 10 µM test compound, 72 hours. The class given is cell-based. The source says:
Lipid peroxidation is a well defined mechanism of cellular damage in both animals and plants that occurs during aging and in some disease states. This process proceeds by a free radical chain reaction mechanism. […] If not terminated fast enough, lipid peroxidation damages cellular membranes, affect membrane fluidity and also mitochondrial function. In addition, end products of lipid peroxidation may be mutagenic and carcinogenic. For instance, the reactive end product of lipid peroxidation, malondialdehyde, directly causes DNA damage. Experimental Procedure: […] BODIPY 581/591-C11 can be used to measure antioxidant activity in lipid environments by exploiting its loss of fluorescence upon interaction with peroxyl radicals. […] After that, 0.1 ml freshly prepared dye solution (HBSS, containing BODIPY dye 1:1000 from stock solution) was added and cells were returned to the incubator for 30 min. After 2 brief washes with 0.1 ml warmed PBS fluorescence was measured in 50 µl PBS. Fluorescence for 4 individual areas per well were individually quantified at two wavelengths (Ex1: 490, Em1: 600; Ex2: 490, Em2: 530, bandwith 10nm, 50 flashes, 400Hz frequency, 20 µs integration time).

The test system of another assay is RGC-5 cells. The experiment in a line: Cellular viability of RGC-like cells challenged with rotenone (cellular ATP content). It counts as cell-based. As to conditions: 1 day-preincubation, 100 µM. An excerpt:
Mitochondrial impairment directly influences cellular survival. Especially cells and tissues that display high level of energy consumption, such as neurons are especially vulnerable. Consequently, these cells and tissues are likely to be the most responsive to a strategy that targets mitochondrial function. We addressed this possibility by assessing the viability of the retinal ganglion cell line RGC-5, challenged with the mitochondrial complex I inhibitor rotenone, in the absence or presence of compounds.
Experimental procedure: RGC-5 cells were cultured under ambient conditions (37 °C, 5% CO2, 90% humidity) in DMEM (1g/l glucose; 10% fetal bovine serum (FBS), Penicillin-Streptomycin-Glutamine (PSG)). RGC-5 cells will be seeded in DMEM (1g/l glucose; 2% FBS) into BD Falcon™ cell culture plates. Before rotenone- induced complex I inhibition, the cells were pre-treated with Compound IA or vehicle. For Compound IA co-treatment with rotenone, new compound was added together with rotenone-containing cell culture media. After the rotenone exposure, the media was exchanged and replaced by Hanks' BSS for the 1 day post-incubation. The post-treatment media contained Compound IA or vehicle only. As measure of cell viability, cellular ATP content was analyzed using luminescence from ATP-dependent enzymatic oxidation of luciferin by luciferase. RGC-5 cells were be washed with PBS and lysed in lysis buffer (4 mM EDTA, 0.2% Triton X-100) at room temperature. In 96-well plates, ATP measurement buffer (25 mM HEPES pH 7.25, 300 µM D-luciferin, 5 µg/ml firefly luciferase, 75 µM DTT, 6.25 mM MgCl2, 625 µM EDTA and 1 mg/ml BSA) was combined with lysate to start the reaction. Luminescence was quantified immediately using a multimode plate reader (Tecan M1000, Tecan iControl 1.6 software; Tecan Austria GmbH, Grödig, Austria). Effects on cell viability were defined as the percentage of compound-mediated change in cell viability relative to rotenone-induced reduction in cell viability. Data are presented as mean ± SEM. Paired Student's t-test was used to compare non-normalized data. Statistical significance was set at p≤0.05(*), p≤0.01(**) and p≤0.001(***).

Regarding `COC1=C(OC)C(=O)C(CCCCCCCCCCO)=C(C)C1=O` [Compound ID], the Lipid peroxidation in assay [1] was 110%.

For `CCCn1cnc2c1c(=O)n(CCCCC(C)=O)c(=O)n2C` [propentophylline, reference compound], the “cell viability, compound-mediated change relative to rotenone-induced reduction, mean (Fig. 2)” value is reported as “not significant” in the assay with RGC-5 cells, 2.2% with RGC-5 cells (listed as PP) and “no significant protective activity” in the assay with RGC-5 cells (listed as propentophilline).
